Consider 25 compounds from BindingDB's records for doi:10.1016/j.bmcl.2020.127696 (National Institutes of Health, 2021).

The structures appear in SMILES notation.

In one test the target is D(1B) dopamine receptor (Homo sapiens, UniProt P21918). Description: Positive allosteric modulator activity at human dopamine D5 receptor expressed in CHO-K1 cells assessed as potentiation of dopamine-induced beta-arrestin2 recruitment by measuring dopamine EC50 at 50 uM incubated for 90 mins by PathHunter assay (Rvb = 81.7 nM). (In general: Activated receptors often draw arrestin, which recruitment assays turn into a signal.)
Sequence of D(1B) dopamine receptor (P21918 whole entry): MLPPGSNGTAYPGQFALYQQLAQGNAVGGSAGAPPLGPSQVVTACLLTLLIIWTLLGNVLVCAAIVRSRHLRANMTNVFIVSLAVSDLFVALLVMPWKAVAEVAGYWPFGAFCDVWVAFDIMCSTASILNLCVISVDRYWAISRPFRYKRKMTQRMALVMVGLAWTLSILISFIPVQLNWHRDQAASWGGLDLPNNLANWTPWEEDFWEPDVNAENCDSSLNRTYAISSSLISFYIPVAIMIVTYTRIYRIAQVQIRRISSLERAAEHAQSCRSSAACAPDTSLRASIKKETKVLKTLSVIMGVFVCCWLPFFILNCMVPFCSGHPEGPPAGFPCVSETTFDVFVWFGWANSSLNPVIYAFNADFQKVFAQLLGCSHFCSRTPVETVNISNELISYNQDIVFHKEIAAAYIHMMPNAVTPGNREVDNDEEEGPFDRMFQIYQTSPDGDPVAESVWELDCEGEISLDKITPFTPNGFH
One may read the EC50 as the concentration at which the effect is half-maximal. With `CC(C)Cc1nc2c(c(=O)c3ccccc3n2C)c(=O)n1-c1ccc(Cl)cc1`, the half-maximal effective concentration (EC50) stood at 56 nM. On the same count and under the same terms, for `COc1ccc(-n2c(C3CCCCC3)nc3c(c(=O)c4ccccc4n3C)c2=O)cc1` the value was 62 nM. The same measure, in the same setting: for `COc1ccc(-n2c(CC3CCCCC3)nc3c(c(=O)c4ccccc4n3C)c2=O)cc1Cl` the value was 94 nM; for `Cc1ccc(-n2c(C3CCCC3)nc3c(c(=O)c4ccccc4n3C)c2=O)cc1`, 27 nM; for `COc1ccc(-n2c(CC(C)C)nc3c(c(=O)c4ccccc4n3C)c2=O)cc1`, 34 nM.

Take `COc1ccc(-n2c(C3CCCC3)nc3c(c(=O)c4ccccc4n3C)c2=O)cc1Cl`: the EC50 was determined as 28 nM. Turning to `Cn1c2ccccc2c(=O)c2c(=O)n(-c3ccc(Cl)cc3)c(C3CCCC3)nc21`, the EC50 is 43 nM. For the compound `Cn1c2ccccc2c(=O)c2c(=O)n(-c3cccc(Cl)c3)c(C3CCCC3)nc21`, the EC50 was 43 nM. As for `Cc1ccc(-n2c(CC3CCCCC3)nc3c(c(=O)c4ccccc4n3C)c2=O)cc1`, the EC50 is 168 nM. On the same count and under the same terms, then `CC(C)Cc1nc2c(c(=O)c3ccccc3n2C)c(=O)n1-c1cccc(Cl)c1`, with 63 nM; and `COc1ccc(-n2c(C3CCCCC3)nc3c(c(=O)c4ccccc4n3C)c2=O)cc1Cl`, with 59 nM; and `Cn1c2ccccc2c(=O)c2c(=O)n(-c3ccc(Cl)cc3)c(C3CCCCC3)nc21`, with 44 nM. On the same count and under the same terms, for `Cc1ccc(-n2c(C3CCCCC3)nc3c(c(=O)c4ccccc4n3C)c2=O)cc1` the value was 27 nM. On the same count and under the same terms, then `Cn1c2ccccc2c(=O)c2c(=O)n(-c3ccccc3)c(C3CC3)nc21`, with 95 nM. Take `Cc1ccc(-n2c(CC(C)C)nc3c(c(=O)c4ccccc4n3C)c2=O)cc1`: the EC50 amounted to 44 nM. On the same count and under the same terms, for `Cn1c2ccccc2c(=O)c2c(=O)n(-c3ccc(Cl)cc3)c(CC3CCCCC3)nc21` the value was 74 nM; for `Cn1c2ccccc2c(=O)c2c(=O)n(-c3ccccc3)c(C3CCCCC3)nc21`, 29 nM; for `Cn1c2ccccc2c(=O)c2c(=O)n(-c3cccc(Cl)c3)c(CC3CCCCC3)nc21`, 95 nM. On to `COc1ccc(-n2c(CC(C)C)nc3c(c(=O)c4ccccc4n3C)c2=O)cc1Cl`, for which the EC50 came to 58 nM. Regarding `Cn1c2ccccc2c(=O)c2c(=O)[nH]c(C3CCCC3)nc21`, the EC50 turned out to be 82 nM. Regarding `Cn1c2ccccc2c(=O)c2c(=O)n(-c3cccc(Cl)c3)c(C3CCCCC3)nc21`, the EC50 came to 80 nM. Still for that read-out and setting: for `CC(C)Cc1nc2c(c(=O)c3ccccc3n2C)c(=O)n1-c1ccccc1` the value was 103 nM; for `COc1ccc(-n2c(C3CCCC3)nc3c(c(=O)c4ccccc4n3C)c2=O)cc1`, 25 nM; for `Cn1c2ccccc2c(=O)c2c(=O)n(-c3ccccc3)c(CC3CCCCC3)nc21`, 49 nM.

Consider `Cn1c2ccccc2c(=O)c2c(=O)n(-c3ccccc3)c(C3CCCC3)nc21`, for which the concentration giving a half-maximal response (EC50) was 80 nM.

For the next test, the target named is D(1A) dopamine receptor (Homo sapiens, UniProt P21728). Description: Positive allosteric modulator activity at human dopamine D1 receptor expressed in HEK293 cells assessed as potentiation of dopamine-induced cAMP accumulation by measuring dopamine EC50 at 50 uM measured after 30 mins by HitHunter assay (Rvb = 214 nM).
Sequence of D(1A) dopamine receptor (P21728 whole entry): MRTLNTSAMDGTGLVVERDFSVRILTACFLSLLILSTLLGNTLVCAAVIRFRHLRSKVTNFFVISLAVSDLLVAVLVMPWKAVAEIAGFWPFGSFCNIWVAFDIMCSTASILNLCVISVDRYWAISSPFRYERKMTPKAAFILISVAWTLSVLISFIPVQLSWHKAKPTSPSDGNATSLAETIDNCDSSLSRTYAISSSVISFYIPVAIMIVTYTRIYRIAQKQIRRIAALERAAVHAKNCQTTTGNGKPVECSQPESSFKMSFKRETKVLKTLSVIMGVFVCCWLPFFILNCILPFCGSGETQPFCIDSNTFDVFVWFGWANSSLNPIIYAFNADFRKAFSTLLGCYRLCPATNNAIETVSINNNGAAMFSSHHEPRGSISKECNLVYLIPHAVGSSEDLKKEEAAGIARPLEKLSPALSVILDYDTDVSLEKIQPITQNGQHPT
In the case of `Cn1c2ccccc2c(=O)c2c(=O)n(-c3ccccc3)c(C3CCCCC3)nc21`, the concentration for a half-maximal effect (EC50) stood at 123 nM.
